Literature values, collected in US20140018379A1, “PYRIMIDINE DERIVATIVES” (CONCERT PHARMACEUTICALS INC., priority 2010, published 2014).

Conditions: 12th CROI 2005, Abst 160

In the case of `Cc1cc(/C=C/C#N)cc(C)c1Nc1ccnc(Nc2ccc(C#N)cc2)n1.Cl` [rilpivirine, 4-[4-[4-[(E)-2-cyanovinyl]-2,6-dimethylphenylamino]pyrimidin-2-ylamino]benzonitrile hydrochloride], the “safety and tolerability in clinical trials” value is given as “safe and well-tolerated” and the “most commonly reported adverse event” value (clinical trials) is given as “Headache”.
